# Test results reported in patent US9181241B2, “Antagonists of chemokine receptors” (ChemoCentryx, Inc., priority 2012, dated 2015).
# System: inflammatory cells recruited to the inflamed synovial fluid of the knee joints
# Assay: Rabbit model of destructive joint inflammation (rabbit LPS study)
# Assay type: in vivo, New Zealand rabbits
# Settings: intra-articular LPS 10 ng, dosed orally 2 hours before and 4 hours after LPS, lavage at sixteen hours
# Method: A rabbit LPS study was conducted essentially as described in Podolin, et al. J. Immunol. 169(11):6435-6444 (2002). Female New Zealand rabbits (approximately 2 kilograms) were treated intra-articularly in both knees with LPS (10 ng). The compound of interest, for example 1.016, (formulated in 1% methocel) or vehicle (1% methocel) was dosed orally at a 5 ml/kg dose volume at two times (2 hours before the intra-articular LPS injection and 4 hours after the intra-articular LPS injection). Sixteen hours after the LPS injection, knees were lavaged and cells counts were performed. Beneficial effects of treatment were determined by reduction in the number of inflammatory cells recruited to the inflamed synovial fluid of the knee joints.
row,Structure (SMILES),reduction in the number of inflammatory cells recruited to the inflamed synovial fluid of the knee joints
1,Cc1c(Cl)c(C(F)(F)F)nn1C(CO)C(=O)N1CCCc2c1cnn2-c1ccc(F)cc1 (stereo not drawn) [Example 1.016],significant reduction in recruited inflammatory cells

# Biological target: T1, CCR1 (Homo sapiens, UniProt P32246)
# T1 construct: host or cells: THP-1 cells or isolated human CD14+ monocytes
# T1 sequence (P32246 1-355): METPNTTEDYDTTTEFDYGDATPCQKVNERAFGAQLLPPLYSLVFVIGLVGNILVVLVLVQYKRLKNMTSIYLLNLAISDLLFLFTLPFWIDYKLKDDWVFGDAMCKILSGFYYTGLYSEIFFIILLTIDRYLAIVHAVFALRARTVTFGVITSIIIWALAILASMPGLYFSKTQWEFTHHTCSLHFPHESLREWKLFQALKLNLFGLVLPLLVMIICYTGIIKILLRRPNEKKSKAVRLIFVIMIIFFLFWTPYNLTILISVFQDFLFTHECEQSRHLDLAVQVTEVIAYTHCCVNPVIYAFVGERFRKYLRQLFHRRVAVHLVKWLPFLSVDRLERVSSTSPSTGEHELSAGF
# Assay: Chemotaxis assay (CTX): inhibition of CCR1 mediated migration of THP-1 or monocyte cells
# Assay type: cell-based
# Settings: class symbols; activity for either the chemotaxis assay or binding assay
# Method: THP-1 cells were obtained from ATCC (TIB-202) and cultured as a suspension in RPMI-1640 medium supplemented with 2 mM L-glutamine, 1.5 g/L sodium bicarbonate, 4.5 g/L glucose, 10 mM HEPES, 1 mM sodium pyruvate, 0.05% 2-mercaptoethanol and 10% FBS. Cells were grown under 5% CO2/95% air, 100% humidity at 37° C. and subcultured twice weekly at 1:5 (cells were cultured at a density range of 2×10^5 to 2×10^6 cells/mL) and harvested at 1×10^6 cells/mL. THP-1 cells express CCR1 and can be used in CCR1 binding and functional assays.
# Monocytes were isolated from human buffy coats using the Miltenyi bead isolation system (Miltenyi, Auburn, Calif.). Briefly, following a Ficoll gradient separation to isolate peripheral blood mononuclear cells, cells were washed with PBS and the red blood cells lysed using standard procedures. Remaining cells were labeled with anti-CD14 antibodies coupled to magnetic beads (Miltenyi Biotech, Auburn, Calif.). Labeled cells were passed through AutoMACS (Miltenyi, Auburn, Calif.) and positive fraction collected. Monocytes express CCR1 and can be used in CCR1 binding and functional assays.
# Chemotaxis assays were performed using 5 μm pore polycarbonate, polyvinylpyrrolidone-coated filters in 96-well chemotaxis chambers (Neuroprobe; Gaithersburg, Md.) using chemotaxis buffer (Hank's balanced salt solution (HBSS) and 1% FBS). CCR1 chemokine ligands (i.e., MIP-1α, CCL15/Leukotactin; R&D Systems; Minneapolis, Minn.) are use to evaluate compound mediated inhibition of CCR1 mediated migration. Other chemokines (i.e., SDF-1α; R&D Systems; Minneapolis, Minn.) are used as specificity controls. The lower chamber was loaded with 29 μl of chemokine (i.e., 0.1 nM CCL15/Leukotactin) and varying amounts of compound; the top chamber contained 100,000 THP-1 or monocyte cells in 20 μl. The chambers were incubated 1-2 hours at 37° C., and the number of cells in the lower chamber quantified either by direct cell counts in five high powered fields per well or by the CyQuant assay (Molecular Probes), a fluorescent dye method that measures nucleic acid content, and by measuring with a Spectrafluor Plus (Tecan). The computer program Prism from GraphPad, Inc. (San Diego, Calif.) was used to calculate IC50 values. IC50 values are those compound concentrations required to inhibit the number of cells responding to a CCR1 agonist by 50%.
row,IC50 [µM],Structure (SMILES)
1,2.5 to 12.5,O=C(Cn1cnc2ncccc21)N1CCCc2c1cnn2-c1ccc(F)cc1
2,< 1,Cc1cc(C(F)(F)F)nn1C(CC1CCOCC1)C(=O)N1CCCc2c1cnn2-c1ccc(F)cc1 (stereo not drawn)
3,< 1,CCC(C(=O)N1CCCc2c1cnn2-c1ccc(F)cc1)n1cc(C(F)(F)F)nc1C (stereo not drawn)
4,< 1,Cc1nc(C(F)(F)F)cn1C(C)C(=O)N1CCCc2c1cnn2-c1ccc(F)cc1 (stereo not drawn)
5,< 1,Cc1cc(C(F)(F)F)nn1C(CO)C(=O)N1CCCc2c1cnn2-c1ccc(F)cc1 (stereo not drawn)
6,< 1,CCC(C(=O)N1c2cnn(-c3ccc(F)cc3)c2CCC1C)n1nc(C(F)(F)F)cc1C (stereo not drawn)
7,< 1,O=C(Cc1nc(C(F)(F)F)c2ccccn12)N1CCCc2c1cnn2-c1ccc(F)cc1
8,< 1,CC[C@@H](C(=O)N1CCCc2c1cnn2-c1ccc(F)cc1)n1nc(C(F)(F)F)c(Cl)c1C
9,< 1,CC[C@H](C(=O)N1CCCc2c1cnn2-c1ccc(F)cc1)n1nc(C(F)(F)F)c(Cl)c1C
10,< 1,O=C(Cc1nc2ccccc2[nH]1)N1CCCc2c1cnn2-c1ccc(F)cc1
11,< 1,COCC(C(=O)N1CCCc2c1cnn2-c1ccc(F)cc1)n1nc(C(F)(F)F)c(Cl)c1C (stereo not drawn)
12,< 1,COC(=O)C1CCc2c(cnn2-c2ccc(F)cc2)N1C(=O)Cn1nc(C(F)(F)F)c(Cl)c1C (stereo not drawn)
13,< 1,CCC(C(=O)N1CCCc2c1cnn2-c1ccc(F)cc1)n1nc(-c2ncccn2)c(Cl)c1C (stereo not drawn)
14,< 1,O=C(Cn1ncc2c1CCCC2)N1CCCc2c1cnn2-c1ccc(F)cc1
15,< 1,O=C(Cc1ccc(C(F)(F)F)cc1Cl)N1CCCc2c1cnn2-c1ccc(F)cc1
16,< 1,Cc1c(Cl)c(C(F)(F)F)nn1CC(=O)N1CCCc2c1cnn2-c1ccc(F)cc1F
17,< 1,O=C(Cn1nc(C(F)(F)F)c2c1OCCC2)N1CCCc2c1cnn2-c1ccc(F)cc1
18,< 1,Cc1cc(C(F)(F)F)nn1C(C)C(=O)N1CCCc2c1cnn2-c1ccc(F)cc1 (stereo not drawn)
19,< 1,O=C(Cn1ncc2cccnc21)N1CCCc2c1cnn2-c1ccc(F)cc1
20,< 1,O=C(Cn1nc(C(F)(F)F)c2cccnc21)N1CCCc2c1cnn2-c1ccc(F)cc1
21,< 1,O=C(Cc1nc2ccccc2o1)N1CCCc2c1cnn2-c1ccc(F)cc1

row,IC50 [µM],Structure (SMILES)
1,< 1,O=C(Cn1nc(C(F)(F)F)c2c1CCC2)N1CCCc2c1cnn2-c1ccc(F)cc1
2,< 1,O=C(Cn1nc(C(F)(F)F)c2c1CCCC2)N1CCCc2c1cnn2-c1ccc(F)cc1
3,> 12.5,O=C(Cn1cccn1)N1CCCc2c1cnn2-c1ccc(F)cc1
4,< 1,Cc1c(Cl)c(-c2ncc[nH]2)nn1CC(=O)N1CCCc2c1cnn2-c1ccc(F)cc1
5,< 1,O=C(Cn1nc(-c2ncc[nH]2)c2cccnc21)N1CCCc2c1cnn2-c1ccc(F)cc1
6,< 1,Cc1c(Cl)c(C2=NCCN2)nn1CC(=O)N1CCCc2c1cnn2-c1ccc(F)cc1
7,> 12.5,Cc1c(Cl)cccc1CC(=O)N1CCCc2c1cnn2-c1ccc(F)cc1
8,< 1,Cc1c(-c2ncon2)cnn1CC(=O)N1CCCc2c1cnn2-c1ccc(F)cc1
9,< 1,Cc1c(Cl)c(C#N)nn1CC(=O)N1CCCc2c1cnn2-c1ccc(F)cc1
10,2.5 to 12.5,N#Cc1cnn(CC(=O)N2CCCc3c2cnn3-c2ccc(F)cc2)c1
11,< 1,O=C(Cn1nc(C(F)(F)F)c2c1CCOC2)N1CCCc2c1cnn2-c1ccc(F)cc1
12,< 1,Cc1c(Cl)c(S(C)(=O)=O)nn1CC(=O)N1CCCc2c1cnn2-c1ccc(F)cc1
13,< 1,O=C(Cn1cc(C(F)(F)F)cn1)N1CCCc2c1cnn2-c1ccc(F)cc1
14,< 1,CC(C(=O)N1CCCc2c1cnn2-c1ccc(F)cc1)c1ccc(Cl)c(C(F)(F)F)c1 (stereo not drawn)
15,2.5 to 12.5,CC(C)(O)c1cnn(CC(=O)N2CCCc3c2cnn3-c2ccc(F)cc2)c1
16,< 1,Cc1c(Cl)cnn1CC(=O)N1CCCc2c1cnn2-c1ccc(F)cc1
17,< 1,O=C(Cn1ccc(C(F)(F)F)n1)N1CCCc2c1cnn2-c1ccc(F)cc1
18,< 1,O=C(Cn1cc(Cl)c(C(F)(F)F)n1)N1CCCc2c1cnn2-c1ccc(F)cc1
19,< 1,Cc1c(Cl)c(C(F)F)nn1CC(=O)N1CCCc2c1cnn2-c1ccc(F)cc1
20,< 1,Cc1c(Cl)c(C(F)(F)F)nn1C(CO)C(=O)N1CCCc2c1cnn2-c1ccc(F)cc1 (stereo not drawn) [drawing 103]
